Assay results reported in US20210322382A1, “METHODS AND COMPOSITIONS FOR IMPROVED TREATMENT OF SINUS DISEASE” (Veloce BioPharma LLC, priority 2020, published 2021).

Columns and labels:
[1] = aqueous solution; stated as known; cited from earlier work
[2] = Stability of PVP-I solutions, USP method; format: physicochemical; conditions: aprotic DMSO solvent system, long periods of time
Source text: It is known that PVP-I aqueous solutions are difficult to stabilize at low concentrations over a long time. At concentrations less than about 0.7% PVP-I (w/w, aqueous), PVP-I aqueous solutions rapidly decay to yield complex mixtures of iodinated and iodine-free constituents. […] It is of additional novelty that even in the hydrated DMSO solutions prepared from aqueous PVP-I, increased stability is observed for the PVP-I component.

[3] = stated as known drawback of PVP-I; cited from earlier work

With povidone-iodine [PVP-I] as the substance, how does the “PVP-I concentration below which aqueous solutions rapidly decay” value [1] read?
Its value is “less than 0.7 % (w/w, aqueous)”.

What about the “lowest PVP-I concentration prepared and maintained as stable composition” value [2] of the same substance?
The value was 0.1%.

And the “PVP-I concentration above which toxic to the sinuses” value [3]?
Its value is “above 2.2 % w/w”.
